Measurements from patent publication US10646529B2, “Methods of obtaining natural products from the comestible fluids and methods of use” (BOARD OF TRUSTEES, RUTGERS, THE STATE UNIVERSITY OF NEW …, priority 2010, dated 2020).
Blank lines part the entries; values can stand above or below the compound they belong to.

Experiments:
Format in all cases: physicochemical
[1] = Sorption of sesquiterpene lactones from chicory root extract to defatted soybean flour (HPLC-MS peak area); details: chicory root water extract 50 ml, defatted soybean flour 100 g/L, 5 minutes
Description: Dried chicory root was ground to a powder and 25 g was extracted in 500 ml of water for three hours in a 50° C. water bath with sonication. The water extract was separated from the plant material by filtration. Defatted soybean flour was mixed for 5 minutes with 50 ml of the chicory root extract at a concentration of 100 g/L followed by centrifugation (10 minutes, 15,000 rpm) and filtration of the supernatant. Untreated and soybean flour-treated chicory root extract were subjected to HPLC-MS; the injection volume for each sample was 10 μl. The amounts of the dihydrolactucin, lactucopicrin and dihydrolactucopicrin compounds present in the chicory root extract sorbed to the soybean flour were determined by calculating the percent decrease in peak area before and after treatment of the chicory extract with soybean flour.

[2] = Sorption of caffeine from green tea by defatted soybean flour (HPLC-MS); details: green tea after SFDF 30 g/L, n=1
Description: The amount of caffeine in the untreated and soybean flour-treated tea samples (n=1) was also tested. […] Caffeine is a psychoactive stimulant that provides health benefits beyond the familiar increase in alertness and energy associated with coffee and tea consumption. The untreated and flour-treated tea samples described above were diluted 10 times in 0.1% acetic acid (1 μL glacial acetic acid and 1 mL water). Samples were subject to HPLC-MS and caffeine was quantified against a caffeine standard curve.

[3] = Sorption of quercetin from grape juice by soybean flour (HPLC-MS); details: 5 minutes, n=1; for % Quercetin Sorbed to SF / Concentration of Quercetin in Soybean flour: Concord grape juice 50 mL, soybean flour 30 g/L
Description: Soybean flour (30 g/L) was added to 50 mL of Concord grape juice and mixed at room temperature for five minutes. The juice was separated from the flour by centrifugation and then filtered through a 0.22 μm syringe filter. Untreated and soybean flour-treated juice samples (n=1) were processed as described in Example 8 and the quercetin content of untreated and soybean flour-treated samples was determined by HPLC-MS. Quercetin is a polyphenolic flavonoid compound. More specifically, it is a flavonol known in the art to have anti-inflammatory and antioxidant properties, and it is expected to be useful in treating cancer. Quercetin is also known to have endurance-promoting effects.

[4] = Sorption of 6-gingerol to full-fat soybean flour (HPLC-MS peak area); details: 6-gingerol 9 μg/ml in water, full-fat soybean flour 30 g/L, 10 ml, 5 minutes
Description: 6-Gingerol (Sigma) was diluted in water to a concentration of 9 μg/ml. Full-fat soybean flour was added to the solution at a concentration of 30 g/L in a volume of 10 ml, mixed for 5 minutes and then centrifuged for 10 minutes at 4000 rpm. The supernatant was removed. Full-fat soybean flour was used as a control. Both the 6-gingerol solution before soybean flour treatment (i.e., plant juice) and that obtained after soybean flour treatment (i.e., plant liquor) were subjected to HPLC-MS; the injection volume for each sample was 10 μl.

[5] = Sorption of resveratrol from grape juice by soybean flour (HPLC-MS)
Description: Soybean flour (30 g/L) was added to 50 mL of Concord grape juice and mixed at room temperature for five minutes. The juice was separated from the flour by centrifugation and then filtered through a 0.22 μm syringe filter. The resveratrol content of the untreated and flour-treated juice samples (n=1) was quantified by HPLC-MS according to a previously published method (Wang et al., J. Agric. Food Chem., 50:431-435, 2002, the disclosure of which is incorporated herein by reference in its entirety.).
The enriched substance was prepared as follows. Briefly, 2 ml of untreated or soybean flour-treated grape juice sample was mixed with 20 ml of methanol overnight and samples were then centrifuged at 2280 g for 5 minutes and the methanol portion was removed. The solid residue was washed with an additional 10 ml of methanol. Methanol supernatants were combined and evaporated using a rotary evaporator and the methanol-free samples were diluted in 10 ml of water for enzymatic hydrolysis with 30 mg β-D-glucosidase (2.3 units/mg). Each sample was then extracted four times with 7 ml of water-saturated ethyl acetate. Ethyl acetate extracts were combined and evaporated to dryness under vacuum using a rotary evaporator. Residues were dissolved in 1 ml of methanol/0.5% formic acid (7:3; v/v) for LC-MS analysis. Standards of resveratrol were prepared for LC-MS to generate standard curves and quantify the levels of each compound in juice samples.

[6] = Concord grape juice 50 mL, soybean flour 30 g/L, 5 minutes, n=1

% of compound sorbed by soybean flour from chicory root extract (percent decrease in peak area) [1]: 100%
Compound: lactucopicrin

Compound: Cn1c(=O)c2c(ncn2C)n(C)c1=O [caffeine]
Caffeine Concentration [2]: 383.1 mg/L

Quercetin in Grape Juice ([3]; Concord grape juice 50 mL after soybean flour 30 g/L): 519 ng/mL
% Quercetin Sorbed to SF [3]: 74%
Concentration of Quercetin in Soybean flour [3]: 49.3 µg/g
% Quercetin Sorbed to SF ([3]; listed as quercetin): about 74%
Concentration of Quercetin in Soybean flour ([3]; listed as quercetin): approximately 49.3 μg/g
Compound: O=c1c(O)c(-c2ccc(O)c(O)c2)oc2cc(O)cc(O)c12 [Quercetin]

% of 6-gingerol sorbed by soybean flour (percent decrease in peak area) [4]: 63%
Compound: CCCCC[C@H](O)CC(=O)CCc1ccc(O)c(OC)c1 [6-gingerol, 6-Gingerol]

Bound resveratrol (amount) ([5]; 1.5 g soybean flour in 50 mL grape juice): 88.8 mg
Resveratrol in Grape Juice ([5]; Concord grape juice 50 mL after soybean flour 30 g/L, 5 minutes, n=1): 325 ng/mL
% Resveratrol Sorbed to SF [5, 6]: 85%
Concentration of Resveratrol in SF [5, 6]: 59.2 µg/g
Compound: Oc1ccc(C=Cc2cc(O)cc(O)c2)cc1 [Resveratrol]

% of compound sorbed by soybean flour from chicory root extract (percent decrease in peak area) [1]: 80%
Compound: CC1=C2C(=O)C=C(CO)[C@@H]2[C@H]2OC(=O)[C@@H](C)[C@@H]2[C@H](OC(=O)Cc2ccc(O)cc2)C1 [dihydrolactucopicrin]
